Laboratory results reported in patent publication US20220304945A1, “METHODS OF TREATING METABOLIC SYNDROME RELATED CONDITIONS USING RETINOIC ACID RECEPTOR AGONISTS” (Cornell University, priority 2014, published 2022).
Entries after “also recorded” stand apart in the source; their conditions may differ.

Key:
Type in all cases: in vivo, mouse
[1] = test system: α-SMA, SREBP1c, MCP-1, TNF-α mRNA; experiment: Semi-quantitative PCR of liver, HF-fed mice; conditions: HF diet mice 4 months
Excerpt: (§1) Mice, diet, and drug treatment. WT male C57/BL6 male mice were maintained on either a standard laboratory chow-fed diet (CFD) with 13% kcal fat, (diet #5053, Lab Diet, Inc, St. Louis, Mo.) or a high fat, western style diet (HFD) with 60% kcals from fat, (diet #58126, Lab Diet, Inc., St. Louis, Mo.) for 4 months. One month after the start of the high fat diet treatment, the high fat diet group was further split into 2 groups for 3 months: i) high fat diet and the drinking water containing 1% DMSO; ii) high fat diet and the drinking water containing 1.5 mg/100 ml AC261066, a specific RARβ agonist. Then mice were sacrificed by cervical dislocation. Blood and various tissue samples were harvested.
Semi-Quantitate PCR (Liver). Total RNA was extracted from mouse tissues using TRIzol reagent (Life technologies) and (1 μg) was used to synthesize cDNA. cDNA synthesis was performed at 42° C. for 1 h in a final volume of 20 μl using qScript (Quanta, MD). Semi-quantitative PCR were performed Taq DNA polymerase (Invitrogen, CA). Three step PCR was run as follows: 94° C. for 30 s, 58-64° C. for 45 s for primer annealing and 72° C. for 1 min for primer extension. The number of cycles for each primer pair for amplification in the linear range was determined experimentally. PCR products were resolved on 2% agarose gels and visualized by staining with ehtidium bromide. Primers for gene expression used were as follows: […]

HF-fed C57/BL6 mice = experiment: Hepatic steatosis: H and E and oil red O staining of liver, HF-fed mice; conditions: HF diet mice 4 months; vs HF-vehicle
Excerpt: as §1
Hematoxylin and Eosin Staining. At sacrifice, fresh mouse liver samples were fixed in 4% formaldehyde solution for 24 hr and embedded in paraffin blocks. Liver paraffin sections were cut 5 microns thick and mounted on glass slides and stained with hematoxylin and eosin (H and E) using standard protocols.
(§2) Combined oil red O and Immunofluorescence. Staining. Fresh mouse liver samples were embedded in optimal cutting temperature (OCT) medium and immediately frozen to −70 centigrade. Cryosections were then fixed in 4% formaldehyde for 1 hr at room temp. Slides were then rinsed three times in deionized water (dH2O) for 30 s, followed by treatment with 0.5% Triton X-100 in PBS for 5 min. Sections were then washed three times with PBS for 5 min. Samples were with incubated 2% bovine serum albumin (BSA) for 30 min at room temperature to block for unspecific antibody binding. Following blocking, sections were washed three times in PBS and incubated with mouse monoclonal antibody against α-SMA (1:500) (Dako, Inc) for 24 h at 4° C. After 24 h sections were washed three times in PB and incubated with Alexa-Flour-488 anti-mouse secondary anti-body (1:500) (Invitrogen, Inc) for 30 min at room temperature. Sections were then washed three times in PBS and incubated with working strength oil-red O solution for 30 minutes at room temperature. Sections were then rinsed for 30 minutes under running tap water and cover-slipped with Vectashield hard mount plus DAPI (Vector Labs, Inc).

[2] = test system: hepatic stellate cells (HSCs); experiment: Hepatic stellate cell activation: α-SMA immunofluorescence of liver, HF-fed mice; conditions: HF diet mice 4 months, vs HF-vehicle
Excerpt: as §1, §2

[3] = test system: srebp1-c, fas, dgat1, fgf21, ppar-γ, sirt1, ppar-α, srebp-2, hmgcr, pepck mRNA; experiment: Q-RT-PCR of hepatic lipogenic, cholesterol and gluconeogenic genes, HFD-fed mice (Example 15)
Experimental: WT male C57/BL6 male mice were maintained on either a standard laboratory chow-fed diet (Con) with 13% kcal fat, (diet #5053, Lab Diet, Inc, St. Louis, Mo.) or a high fat, western style diet (HFD) with 45% kcals from fat, (diet #58126, Lab Diet, Inc., St. Louis, Mo.) for 4 months. One month after the start of the HFD treatment, the HFD group was further split into 3 groups for 3 months: i) HFD and the drinking water containing 1% DMSO; ii) high fat diet (HFD) and drinking water containing 1.5 mg/100 ml AC261066, a specific RARβ agonist in 1% DMSO or iii) HFD and drinking water containing 1.5 mg/100 ml CD1530, a specific RARγ agonist in 1% DMSO. Then mice were sacrificed by cervical dislocation. Blood and various tissue samples were harvested.
Total RNA was extracted from mouse tissues using TRIzol reagent (Life technologies) and (1 μg) was used to synthesize cDNA. cDNA synthesis was performed at 42° C. for 1 h in a final volume of 20 μl using qScript (Quanta, MD). Q-RTPCR was performed as previously described (15). Primers for gene expression used were as follows: […]

| SMILES | hepatic mRNA level of MCP-1 [1] | hepatic mRNA level of TNF-α [1] | hepatic mRNA level of SREBP1-c ([1]; vs control diet) | hepatic lipid accumulation (oil red O) (HF-fed C57/BL6 mice) | hepatic steatosis / hepatocyte lipid accumulation (H and E) (HF-fed C57/BL6 mice) | activation of hepatic stellate cells (α-SMA positive staining in liver) [2] | hepatic gene expression of pepck [3] | hepatic mRNA levels of srebp-2 and hmgcr [3] | hepatic mRNA level of alpha-SMA ([1]; vs HF-vehicle) | activation of hepatic stellate cells (α-SMA positive staining in liver) ([2]; listed as AC261011) | hepatic mRNA levels of lipogenic proteins srebp1-c, fas, dgat1, fgf21, ppar-γ [3] | hepatic mRNA levels of sirt1 and ppar-α [3] |
| --- | --- | --- | --- | --- | --- | --- | --- | --- | --- | --- | --- | --- |
| O=C(O)c1ccc(-c2ccc3cc(O)c(C45CC6CC(CC(C6)C4)C5)cc3c2)cc1 [CD1530] | markedly elevated | markedly elevated | markedly higher | not observed; also recorded: no evidence decreased | no decrease | no evidence decreased | not affected | not observed | – | – | – | – |
| CCCCOCCOc1nc(-c2ccc(C(=O)O)c(F)c2)sc1C [AC261066] | decreases; also recorded: significantly diminish | decreases | – | marked diminished | diminished; also recorded: prevent; also recorded: marked decreased | diminished; also recorded: prevent; also recorded: decreased intensity and regions of α-SMA positive staining | not affected | significantly reduced | decreased | decreased | greatly reduces; also recorded: significantly reduced | prevented a large decrease |
